Biological target: T1, Trp-p8 (Homo sapiens, UniProt Q7Z2W7, T58I)
T1 construct: expressed in transfected cells
Assay: Cell viability (ATP) assay for Trp-p8 antagonists: protection of CHO/Trp-p8 cells from toxic control agonist D-1607
Type: cell-based
Conditions: Table 3, Formula VII antagonists; 10 μM compound plus toxic concentration of control agonist, CHO/Trp-p8 cells, 37° C.; ATP level relative to DMSO
Procedure: FIG. 4 is a graph depicting exemplary results from a primary screen for Trp-p8 antagonists using the ATP viability assay, described herein, with CHO/Trp-p8 cells at 37° C. CHO/Trp-p8 cells were exposed to compounds, at different concentrations, in 1% DMSO or 1% DMSO in combination with a toxic concentration of the Trp-p8 agonist 1607. The viability of cells was measured after 24-26 hours at 37° C. using the ATP assay.
As a primary screen for efficacy and specificity for agonists, both the non-transfected CHO and CHO/Trp-p8 cells were exposed to 10 μM of test compounds in 1% dimethylsulfoxide (DMSO) or 1% DMSO (control) in a 96-well black walled, black-bottomed, cell-culture treated plate. DMSO was the solvent for all of the compounds tested. After 24-26 hours at 37° C., the cells were lysed and ATP concentration determined via a chemiluminescence assay using a commercially available reagent kit—Cell Titer-Glo (Promega; Madison, Wis.). […] (EC50 is defined herein as the agonist concentration at which there is a 50% reduction in cell viability).
Trp-p8 antagonists were identified by employing a cell viability assay with CHO/Trp-p8 cells at 37° C. (see Example 7) with the following modification. Within the context of the present invention, compounds that protect CHO/Trp-p8 cells from the toxic effect of a control agonist thereby maintaining the viability of the CHO/Trp-p8 cell exposed to a Trp-p8 agonist is defined as antagonist. As a primary screen for antagonists, CHO/Trp-p8 cells were exposed to 10 μM of test compounds in 1% dimethylsulfoxide (DMSO) or 1% DMSO plus a toxic concentration of a control agonist, D-1607.

T1 sequence (Q7Z2W7 whole entry T58I): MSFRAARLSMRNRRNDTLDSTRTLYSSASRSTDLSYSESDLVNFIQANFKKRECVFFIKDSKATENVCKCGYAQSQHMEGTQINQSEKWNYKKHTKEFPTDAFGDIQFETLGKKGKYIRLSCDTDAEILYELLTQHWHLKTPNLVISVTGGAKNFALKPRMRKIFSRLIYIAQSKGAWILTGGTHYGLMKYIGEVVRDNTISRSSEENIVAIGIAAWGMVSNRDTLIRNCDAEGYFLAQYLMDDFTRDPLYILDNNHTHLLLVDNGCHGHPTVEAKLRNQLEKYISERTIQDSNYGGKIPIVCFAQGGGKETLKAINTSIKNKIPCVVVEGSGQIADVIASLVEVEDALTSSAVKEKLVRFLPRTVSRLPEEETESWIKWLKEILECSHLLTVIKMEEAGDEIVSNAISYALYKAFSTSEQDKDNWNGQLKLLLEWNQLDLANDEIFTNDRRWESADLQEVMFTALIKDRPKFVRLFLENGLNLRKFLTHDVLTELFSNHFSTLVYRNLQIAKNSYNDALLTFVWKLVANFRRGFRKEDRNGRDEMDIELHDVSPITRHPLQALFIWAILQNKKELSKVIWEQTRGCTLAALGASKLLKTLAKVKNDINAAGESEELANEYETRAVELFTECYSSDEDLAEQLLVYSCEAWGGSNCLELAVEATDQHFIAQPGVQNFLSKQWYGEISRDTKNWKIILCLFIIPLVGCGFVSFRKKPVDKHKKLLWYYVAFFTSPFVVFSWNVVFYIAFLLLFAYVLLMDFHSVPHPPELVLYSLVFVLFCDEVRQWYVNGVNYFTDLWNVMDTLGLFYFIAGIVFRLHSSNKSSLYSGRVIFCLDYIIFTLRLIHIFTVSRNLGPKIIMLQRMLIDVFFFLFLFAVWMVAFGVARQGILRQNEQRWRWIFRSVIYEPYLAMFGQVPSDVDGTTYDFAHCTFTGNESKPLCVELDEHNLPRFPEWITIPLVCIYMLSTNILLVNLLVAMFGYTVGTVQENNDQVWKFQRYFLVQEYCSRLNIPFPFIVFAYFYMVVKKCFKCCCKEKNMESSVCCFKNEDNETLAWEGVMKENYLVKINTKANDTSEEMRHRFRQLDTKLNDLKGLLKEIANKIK

| SMILES | Rel. Viab. (%) at 10 μM |
| --- | --- |
| c1ccc(Cn2ncc3c(N4CCN(c5ccccn5)CC4)ncnc32)cc1 [compound 13] | 91% |
| O=[N+]([O-])c1ccc(N2CCN(c3ccc(C(F)(F)F)cc3[N+](=O)[O-])CC2)cc1NCc1ccccc1 [compound 27] | 87% |
| O=[N+]([O-])c1cc(Cl)ccc1N1CCN(c2ccc([N+](=O)[O-])c3cccnc23)CC1 [compound 34] | 82% |
| COc1ccccc1N1CCN(CC(O)COC2CC(C)CCC2C(C)C)CC1.Cl.Cl (centres unmarked) [compound 36] | 87% |
| Clc1ccccc1N1CCN(c2ncnc3c2cnn3-c2ccccc2)CC1 [compound 51] | 100% |
| c1ccc(CNc2nc(N3CCN(c4ccccc4)CC3)nc3ccccc23)cc1 [compound 67] | 102% |
| Cc1nc(N2CCOCC2)nc(N2CCN(c3ccccc3)CC2)c1[N+](=O)[O-] [compound 69] | 106% |
| Cc1cc(N2CCN(c3cc(N4CCN(CCO)CC4)ccc3[N+](=O)[O-])CC2)c2ccccc2n1 [compound 74] | 81% |
| COc1ccc(N2CCN(CC(O)COC3CC(C)CCC3C(C)C)CC2)cc1.Cl.Cl (centres unmarked) [compound 93] | 111% |
| Cc1ccc(C)n1-c1ccc(N2CCN(c3ccccc3)CC2)c([N+](=O)[O-])c1 [compound 103] | 99% |
| O=[N+]([O-])c1cc(S(=O)(=O)C(F)(F)F)ccc1N1CCN(c2ccccc2)CC1 [compound 107] | 98% |
| Fc1ccc(N2CCN(c3ncnc4c3cnn4-c3ccccc3)CC2)cc1 [compound 159] | 95% |
| N#Cc1nc(COc2ccccc2F)oc1N1CCN(c2ccccc2)CC1 [compound 711] | 94% |
| FC(F)(F)Oc1ccc(Nc2nc(N3CCCCCC3)nc(N3CCN(C45CC6CC(CC(C6)C4)C5)CC3)n2)cc1 [compound 809] | 89% |
| OC(F)(F)Oc1ccc(Nc2nc(N3CCCCCC3)nc(N3CCN(C45CC6CC(CC(C6)C4)C5)CC3)n2)cc1 [compound 812] | 99% |
| O=C1c2ccccc2-c2onc3c(N4CCN(C5CCCCC5)CC4)cc(Nc4ccc5c(c4)OCO5)c1c23 [compound 881] | 82% |
| O=C1c2ccccc2-c2onc3c(N4CCN(C5CCCCC5)CC4)cc(Nc4ccc5c(c4)OCCO5)c1c23 [compound 882] | 86% |
| Cc1ccc(C(c2sc3nc(C)nn3c2O)N2CCN(C(c3ccccc3)c3ccccc3)CC2)cc1 (centres unmarked) [compound 1019] | 87% |
| Cc1nc2sc(C(c3ccc(Br)cc3)N3CCN(C(c4ccccc4)c4ccccc4)CC3)c(O)n2n1 (centres unmarked) [compound 1021] | 92% |
| Cc1nc2sc(C(c3cccc(F)c3)N3CCN(C(c4ccccc4)c4ccccc4)CC3)c(O)n2n1 (centres unmarked) [compound 1026] | 92% |
| Cc1nc2sc(C(c3cccc(O)c3)N3CCN(C(c4ccccc4)c4ccccc4)CC3)c(O)n2n1 (centres unmarked) [compound 1027] | 84% |
| COc1cc(C(c2sc3nc(C)nn3c2O)N2CCN(C(c3ccccc3)c3ccccc3)CC2)cc(OC)c1OC (centres unmarked) [compound 1028] | 85% |
| Cc1nc2sc(C(c3cccs3)N3CCN(C(c4ccccc4)c4ccccc4)CC3)c(O)n2n1 (centres unmarked) [compound 1039] | 84% |
| O=C1CN(c2nc3ccccc3c(=O)n2Cc2ccccc2)CC(=O)N1CCc1ccccc1 [compound 1069] | 86% |
| Cc1ccc(C2C(=O)N(C3CCC(C)CC3)CC(=O)N2C2CCCC2)cc1 (centres unmarked) [compound 1262] | 86% |
| O=C1C(c2ccc(F)cc2Cl)N(C2CCCc3ccccc32)C(=O)CN1C1CCCCCC1 (centres unmarked) [compound 1280] | 87% |

Source: patent publication US8389730B2, “Compositions and methods for the treatment of disease associated with TRP-P8 expression” (Dendreon Corporation, priority 2003, dated 2013)
